Our source for the MIC and IC50 values is ChEMBL document CHEMBL3632467, “Tyrokeradines G and H, new bromotyrosine alkaloids from an Okinawan Verongid sponge” (Bioorg Med Chem Lett, 2015).

In one test the test system is Staphylococcus aureus. Kind of test: Antibacterial activity against Staphylococcus aureus. The class given is functional.
The subject of the next test is Bacillus subtilis. Kind of test: Antibacterial activity against Bacillus subtilis. The class given is functional.
Another test has as its system Candida albicans. The experiment in a line: Antifungal activity against Candida albicans. Format: functional, organism-based.
The next test relates to Cryptococcus neoformans. The experiment in a line: Antifungal activity against Cryptococcus neoformans. The class given is functional, organism-based.
In another test the test system is Escherichia coli. The experiment in a line: Antibacterial activity against Escherichia coli. The class given is functional.
The subject of another test is Micrococcus luteus. The experiment in a line: Antibacterial activity against Micrococcus luteus. Format: functional.
Test [1] has as its system Trichophyton mentagrophytes. Kind of test: Antifungal activity against Trichophyton mentagrophytes. Format: functional, organism-based.
For the next test, the system named is Aspergillus niger. The experiment in a line: Antifungal activity against Aspergillus niger. The class given is functional, organism-based.

≈ marks a conversion by molar mass, not a printed value.

By MIC is commonly meant the least concentration at which growth counts as inhibited. Higher therefore signals a less susceptible organism. For orientation: IC50 means the midpoint of a concentration-inhibition curve. Read a high IC50 as weaker potency. Turning to `NCCCOc1c(Br)cc(C/C(=N\O)C(=O)NCCC(=O)O)cc1Br`, the MIC with Staphylococcus aureus, with Bacillus subtilis, with Escherichia coli and in the test with Micrococcus luteus was greater than 32 µg/mL in each case. Further, the IC50 was greater than 32 µg/mL in the test on Candida albicans, 16 µg/mL (≈ 33.3 µM) in the test on Cryptococcus neoformans, greater than 32 µg/mL in test [1] and 32 µg/mL (≈ 66.5 µM) in the test on Aspergillus niger.
On to `O=C(O)/C(Cc1cc(Br)c(OCCC[n+]2ccccc2)c(Br)c1)=N/O`, for which the minimal inhibitory concentration (MIC) against Staphylococcus aureus, against Bacillus subtilis, against Escherichia coli and against Micrococcus luteus was greater than 32 µg/mL in each case. Further, the IC50 is greater than 32 µg/mL with Candida albicans, greater than 32 µg/mL in the test with Cryptococcus neoformans, greater than 32 µg/mL in test [1] and 32 µg/mL in the test on Aspergillus niger.
